In article PMC12386561, “Broad-Spectrum Antimicrobial Potential of the γ-Core Motif Peptides of Filipendula ulmaria for Practical Applications in Agriculture and Medicine” (International Journal of Molecular Sciences, 2025):
Residues, ends and D or L forms follow the SMILES beside them.

Assays:
[1] = tested on: Pectobacterium carotovorum subsp. carotovorum VKM B-1247; assay: Antimicrobial activity assay against bacteria, growth inhibition in microtiter plates; format: cell-based; conditions: modified YPD-P medium, peptide 0.5–300 µM, 30 °C, 24 h, absorbance 594 nm, triplicate, mean ± SD
Text: (§1) The IC50 values are presented as mean ± standard deviations.

[2] = tested on: Botrytis cinerea VKM F-4549; format: cell-based; conditions: spores in half-strength potato dextrose broth, peptide 5–300 µM, 48 h, absorbance 595 nm, triplicate, mean ± SD; read-out: IC50 against B. cinerea
Experimental: (§2) The inhibitory activity of peptides on spore germination and growth of fungi was tested against nine fungal strains from the VKM: Fusarium culmorum VKM F-2303, F. oxysporum VKM F-137, F. solani VKM F-142, F. verticillioides VKM F-670, Aspergillus unguis VKM F-1754, Bipolaris sorokiniana VKM F-4006, Botrytis cinerea VKM F-4549, Rhizoctonia solani VKM F-895, and Penicillium gladioli VKM F-2088. The fungi were cultivated on potato dextrose agar at 25 °C for 7–8 days, while B. sorokiniana and B. cinerea were grown for 10–12 days. Spores were obtained by washing from the surface of the mycelia with sterile distilled water and filtered through a sterile filter. The filtrate was centrifuged at 6000 rpm for 15 min. The precipitate was washed three times with sterile distilled water and centrifuged at 10,000 rpm for 2 min. A total of 1 mL of sterile aqueous 20% glycerol solution was added to the spores, and spores were stored at −20 °C.
(§3) The antifungal effect of peptides was determined in microtiter plates by measuring the absorbance of the spore suspension in the presence of the peptide relative to the control. In the wells of a plate, 90 µL of spore suspension in half-strength potato dextrose broth at a concentration of 2000–3000 spores in 100 µL was mixed with 10 µL of aqueous solutions of peptides to obtain final concentrations of 5–300 µM. Each experiment was carried out in triplicate. The concentration of spores in the suspension was determined in a Goryaev chamber. The absorbance was recorded at 595 nm on a FilterMax F5 Multi-Mode Microplate Reader (Molecular Devices, San Jose, CA, USA) after 48 h of incubation. The antimicrobial activity was expressed in IC50 values.

[3] = tested on: Bipolaris sorokiniana VKM F-4006; assay: Antifungal activity assay, spore germination and growth; format: cell-based; conditions: spores in half-strength potato dextrose broth, peptide 5–300 µM, 48 h, absorbance 595 nm, triplicate, mean ± SD; read-out: IC50 against B. sorokiniana
Experimental: as §2, §3

[4] = tested on: Rhizoctonia solani VKM F-895; assay: as above; format: cell-based; conditions: spores in half-strength potato dextrose broth, peptide 5–300 µM, 48 h, absorbance 595 nm, triplicate, mean ± SD; read-out: IC50 against R. solani
Experimental: as §2, §3

[5] = tested on: F. solani VKM F-142; format: cell-based, Fusarium solani; conditions: spores in half-strength potato dextrose broth, peptide 5–300 µM, 48 h, absorbance 595 nm, triplicate, mean ± SD; for IC50: read-out: IC50 against F. solani
Experimental: as §2, §3

[6] = tested on: Pseudomonas savastanoi pv. savastanoi VKM B-1546; format: cell-based; conditions: medium without glucose, peptide 0.5–300 µM, 30 °C, 24 h, absorbance 594 nm, triplicate, mean ± SD; for IC50: read-out: IC50 against P. savastanoi
Text: as §1

[7] = tested on: Candida albicans VKM Y-2994; format: cell-based; conditions: YPD-P medium, peptide 0.5–300 µM, 30 °C, 24 h, absorbance 594 nm, triplicate, mean ± SD; read-out: IC50 against C. albicans
Text: as §1

[8] = tested on: F. oxysporum VKM F-137; format: cell-based, Fusarium oxysporum; conditions: spores in half-strength potato dextrose broth, peptide 5–300 µM, 48 h, absorbance 595 nm, triplicate, mean ± SD; for IC50: read-out: IC50 against F. oxysporum
Experimental: as §2, §3

[9] = tested on: Aspergillus unguis VKM F-1754; format: cell-based; conditions: spores in half-strength potato dextrose broth, peptide 5–300 µM, 48 h, absorbance 595 nm, triplicate, mean ± SD; read-out: IC50 against A. unguis
Experimental: as §2, §3

[10] = tested on: Penicillium gladioli VKM F-2088; format: cell-based; conditions: spores in half-strength potato dextrose broth, peptide 5–300 µM, 48 h, absorbance 595 nm, triplicate, mean ± SD; read-out: IC50 against P. gladioli
Experimental: as §2, §3

[11] = tested on: C. tropicalis VKM Y-2771; format: cell-based, Candida tropicalis; conditions: YPD-P medium, peptide 0.5–300 µM, 30 °C, 24 h, absorbance 594 nm, triplicate, mean ± SD; read-out: IC50 against C. tropicalis
Text: as §1

[12] = tested on: Fusarium culmorum VKM F-2303; assay: Antifungal activity assay, spore germination and growth; format: cell-based; conditions: spores in half-strength potato dextrose broth, peptide 5–300 µM, 48 h, absorbance 595 nm, triplicate, mean ± SD; for IC50: read-out: IC50 against F. culmorum
Experimental: as §2, §3

[13] = tested on: Cryptococcus neoformans VKM Y-2755; conditions: read-out: IC50 against C. neoformans; YPD-P medium, peptide 0.5–300 µM, 30 °C, 24 h, absorbance 594 nm, triplicate, mean ± SD
[14] = tested on: Clavibacter michiganensis subsp. michiganensis VKM Ac-1403; assay: Antimicrobial activity assay against bacteria, growth inhibition in microtiter plates; format: cell-based; conditions: modified YPD-P medium, peptide 0.5–300 µM, 30 °C, 24 h, absorbance 594 nm, triplicate, mean ± SD
Text: as §1

[15] = tested on: F. verticillioides VKM F-670; format: cell-based, Fusarium verticillioides; conditions: spores in half-strength potato dextrose broth, peptide 5–300 µM, 48 h, absorbance 595 nm, triplicate, mean ± SD; for IC50: read-out: IC50 against F. verticillioides
Experimental: as §2, §3

CC[C@H](C)[C@H](NC(=O)[C@H](Cc1c[nH]cn1)NC(=O)[C@H](CO)NC(=O)[C@H](CS)NC(=O)[C@H](CCCCN)NC(=O)CN)C(=O)N[C@@H](CC(C)C)C(=O)N[C@@H](CCCNC(=N)N)C(=O)N[C@@H](CCCNC(=N)N)C(=O)N[C@@H](CS)C(=O)N[C@@H](Cc1ccccc1)C(=O)N[C@@H](CS)C(=O)N[C@H](C(=O)N[C@H](C(=O)N[C@@H](Cc1c[nH]cn1)C(=O)N[C@@H](CS)C(=O)O)[C@@H](C)O)[C@@H](C)O [FuD0] (H-GKCSHILRRCFCTTHC-OH; N-terminus and C-terminus assumed)
IC50 [1]: > 300 µM

CC(C)C[C@H](NC(=O)[C@H](CCCCN)NC(=O)[C@H](CS)NC(=O)[C@H](CCCNC(=N)N)NC(=O)CN)C(=O)N[C@@H](CO)C(=O)N[C@@H](CO)C(=O)N[C@@H](CCCNC(=N)N)C(=O)N1CCC[C@H]1C(=O)N[C@@H](CCCCN)C(=O)N[C@@H](CC(C)C)C(=O)N[C@@H](CS)C(=O)N[C@@H](CCCCN)C(=O)N[C@@H](CCCNC(=N)N)C(=O)O [γ54-69FuSN5] (H-GRCKLSSRPKLCKR-OH; N-terminus and C-terminus assumed)
IC50 [2]: > 300 µM
IC50 [3]: > 300 µM
IC50 [4]: > 300 µM
IC50 [1]: > 300 µM

CC(C)C[C@H](NC(=O)CN)C(=O)N[C@@H](CS)C(=O)N[C@@H](CCCCN)C(=O)N[C@@H](Cc1ccc(O)cc1)C(=O)N[C@@H](CCCNC(=N)N)C(=O)N[C@@H](CS)C(=O)N[C@@H](CO)C(=O)N[C@@H](CC(C)C)C(=O)N[C@@H](Cc1c[nH]cn1)C(=O)N[C@@H](CO)C(=O)N[C@@H](CCCNC(=N)N)C(=O)N1CCC[C@H]1C(=O)N[C@@H](CC(N)=O)C(=O)N[C@H](C(=O)N[C@@H](CS)C(=O)N[C@@H](Cc1ccccc1)C(=O)N[C@@H](CCCNC(=N)N)C(=O)O)C(C)C [γ89-106SlSN9, reference compound] (H-GLCKYRCSLHSRPNVCFR-OH)
IC50 [5]: 50.5 ± 1.4 µM
IC50 [6]: 127.6 ± 0.9 µM
IC50 [7]: 214 ± 47.1 µM
IC50 [8]: 34.1 ± 1 µM
IC50 [2]: 118 ± 12 µM
IC50 [9]: 3.3 ± 0.2 µM
IC50 [10]: 93.6 ± 5.2 µM
IC50 [11]: 6.1 ± 0.1 µM
IC50 [3]: 55.1 ± 7 µM
IC50 [12]: 23.1 ± 4.5 µM
IC50 [4]: 130 ± 2.9 µM
IC50 [13]: 6.3 ± 3.8 µM
IC50 [14]: 41.9 ± 0.5 µM
IC50 [15]: 32.3 ± 6.5 µM

CC[C@H](C)[C@H](NC(=O)[C@H](CS)NC(=O)[C@H](C)NC(=O)CN)C(=O)N[C@@H](C)C(=O)N[C@@H](CCCNC(=N)N)C(=O)N[C@@H](CS)C(=O)N[C@@H](CCCNC(=N)N)C(=O)N[C@@H](CC(C)C)C(=O)N[C@@H](CO)C(=O)N[C@@H](CO)C(=O)N[C@@H](CCCNC(=N)N)C(=O)N1CCC[C@H]1C(=O)N[C@@H](CC(N)=O)C(=O)N[C@@H](CC(C)C)C(=O)N[C@@H](CS)C(=O)N[C@@H](CCCCN)C(=O)N[C@@H](CCCNC(=N)N)C(=O)O [γ48-67FuSN6] (H-GACIARCRLSSRPNLCKR-OH; N-terminus and C-terminus assumed)
IC50 [5]: 51.4 ± 0.9 µM
IC50 [6]: 97.2 ± 0.2 µM
IC50 [7]: > 300 µM
IC50 [8]: 15.8 ± 0.6 µM
IC50 [2]: 154 ± 4.4 µM
IC50 [9]: 2.1 µM
IC50 [10]: 93.8 ± 4.2 µM
IC50 [11]: 1.7 ± 0.6 µM
IC50 [3]: 46.2 ± 3.2 µM
IC50 [12]: 19.3 ± 1.2 µM
IC50 [13]: 5.5 ± 0.2 µM
IC50 [1]: > 300 µM
IC50 [14]: 34.7 ± 0.5 µM
IC50 [15]: 38 ± 4.6 µM

CC[C@H](C)[C@H](NC(=O)[C@H](Cc1c[nH]cn1)NC(=O)[C@H](CO)NC(=O)[C@H](CS)NC(=O)[C@H](CCCCN)NC(=O)CN)C(=O)N[C@@H](CC(C)C)C(=O)N[C@@H](CCCNC(=N)N)C(=O)N[C@@H](CCCNC(=N)N)C(=O)N[C@@H](CS)C(=O)N[C@@H](CCC(N)=O)C(=O)N[C@@H](CS)C(=O)N[C@@H](CC(C)C)C(=O)N[C@@H](CCCCN)C(=O)N[C@@H](CO)C(=O)N[C@@H](CS)C(=O)O [γ61-76FuDEFL1-7] (H-GKCSHILRRCQCLKSC-OH; N-terminus and C-terminus assumed)
IC50 [1]: > 300 µM

CSCC[C@H](NC(=O)[C@H](CC(=O)O)NC(=O)[C@@H](NC(=O)[C@H](Cc1ccc(O)cc1)NC(=O)[C@H](CS)NC(=O)[C@H](CO)NC(=O)CN)[C@@H](C)O)C(=O)N[C@H](C(=O)N[C@H](C(=O)N[C@@H](Cc1c[nH]cn1)C(=O)NCC(=O)N[C@@H](CC(N)=O)C(=O)N[C@@H](CCCNC(=N)N)C(=O)N[C@@H](CC(C)C)C(=O)N[C@@H](CCCCN)C(=O)N[C@@H](CS)C(=O)N1CCC[C@H]1C(=O)O)[C@@H](C)O)[C@@H](C)O [γ88-104FuSN3] (H-GSCYTDMTTHGNRLKCP-OH; N-terminus and C-terminus assumed)
IC50 against F. solani [5]: inactive
IC50 [5]: > 300 µM
IC50 against P. savastanoi [6]: failed to inhibit the growth
IC50 [6]: > 300 µM
IC50 [7]: > 300 µM
IC50 against F. oxysporum [8]: inactive
IC50 [8]: > 300 µM
IC50 against F. culmorum [12]: inactive
IC50 [12]: > 300 µM
IC50 [1]: > 300 µM
IC50 against P. carotovorum [1]: failed to inhibit the growth
IC50 [14]: > 300 µM
IC50 against C. michiganensis [14]: failed to inhibit the growth
IC50 against F. verticillioides [15]: very low activity

CC[C@H](C)[C@H](NC(=O)[C@H](Cc1c[nH]cn1)NC(=O)[C@H](CO)NC(=O)[C@H](CS)NC(=O)[C@H](CCCCN)NC(=O)CN)C(=O)N[C@@H](CC(C)C)C(=O)N[C@@H](CCCNC(=N)N)C(=O)N[C@@H](CCCNC(=N)N)C(=O)N[C@@H](CS)C(=O)N[C@@H](CCCNC(=N)N)C(=O)N[C@@H](CS)C(=O)N[C@@H](CO)C(=O)N[C@@H](CCCCN)C(=O)N[C@@H](CO)C(=O)N[C@@H](CS)C(=O)O [γ59-74FuDEFL1-1] (H-GKCSHILRRCRCSKSC-OH; N-terminus and C-terminus assumed)
IC50 [1]: > 300 µM
